Measurements from patent US12648947B2, “Heterocyclic derivatives, pharmaceutical compositions and their use in the treatment, amelioration or prevention of fibrotic disease” (TOLREMO THERAPEUTICS AG, priority 2020, dated 2026).
Read-outs that look alike come from different tables or passages of the source.

Assays:
CBP bromodomain = target: T1, CBP bromodomain (Homo sapiens, UniProt Q92793); assay: CBP bromodomain binding assay (TR-FRET); conditions: 1 hour incubation at room temperature
T1 construct: purchased Cayman chemicals 600850
Experimental: Compounds solutions of 10 mM in DMSO were pre-diluted in DSMO to 25× stock solutions in DMSO. These were then diluted down to 4× in Assay buffer. A dilution series in Assay buffer was performed keeping the DMSO concentration stable. 5 μl compound in assay buffer was transferred into the assay plate (provided by assay kit) and the TR-FRET assay Cayman chemicals; 600850) was performed using the manufacture's instructions. After 1 hour incubation at room temperature in the darks, assay plates were read in a Tecan M1000 plate reader using the TR-FRET mode (top read; excitation 340 nm bandwidth 20 nM; emission 620 nm bandwidth 7 nM; gain optimal determined for the first well, number of flashes: 5; flash frequency 100 Hz; integration time: 500 μs, lag time: 100 μs, room temperature). The TR-FRET ratio was calculated by dividing 670 nm emission by 620 nm emission. […] Values were log transformed and non-linear regression with variable slope (4 parameters) was used to fit values to a dose-response curve to evaluate EC50 values (see table 5 below).

[1] = tested on: TGF-β1 induced α-smooth muscle actin (αSMA) production by IPF diseased donor's lung fibroblast; assay: Fibroblast-to-Myofibroblast Transition (FMT) assay; type: cell-based; conditions: for IC50: Fibroblast, 72 h, 1.25 ng/ml TGF-β1, 72 h, read-out: IC50 αSMA, Log (converted); for Potential toxicity Log [M]: concentration with >25% cell loss (DAPI nuclei); for Max. Percentage Inhibition (PIN), [%]: αSMA
Experimental: Lung fibroblasts from 3 IPF donors (Pat1-3) were seeded for automated high-content/high-throughput microscopy. At day 2 cell culture medium was refreshed in the wells and fibroblast grown until day 5, at which point drug treatment was initiated.
Drug addition was done 1 h before stimuli addition (1.25 ng/ml TGF-β1). For trigger controls wells with fibroblasts were treated with medium (unstimulated control) or 1.25 ng/ml TGF-β1 (stimulated control). For assay controls fibroblasts were treated with 1.25 ng/ml TGF-β1+0.1% DMSO (unstimulated control) or 1.25 ng/ml TGF-β1+1 μM SB525334 (positive control for inhibition). Reference compound and clinically approved drug nintedanib was added as concentration response curve (CRC) with 8-points in a semi-Log dilution starting from 10 μM.
Wells were fixed with 4% paraformaldehyde and stained for α-smooth muscle actin (αSMA) expression using immunofluorescence and with DAPI to assess nuclei number per well. Image acquisition and high content analysis (HCA) of αSMA and DAPI was done on a high content microscope.
(§1) Analysis of αSMA/FN1: Images were segmented and quantificatied for αSMA/FN1 immunoreactivity by an HCA algorithm, with density x area (DxA) output. Data were normalized from raw αSMA/FN1 (DxA) to percentage inhibition (PIN) values, on a plate-to-plate basis
(§2) [formula] • μp is the average αSMA/FN1 value of the positive control (TGF-β1+1 μM SB525334) • μn is the average of αSMA/FN1 value of the vehicle control (TGF-β1+0.1% DMSO) • Xi is the compound αSMA/FN1 value
(§3) Analysis of % Remaining cells: DAPI fluorescence applied for HCA-based quantification of the number of imaged cells, on a plate-to-plate basis.
(§4) [formula] • μn is the average numbers of nuclei of the vehicle control (TGF-β1+0.1% DMSO) • Xi is the compound number of nuclei

[2] = tested on: TGF-β1 induced Fibronectin 1 (FN1) production by IPF diseased donor's bronchial epithelial cells; assay: Epithelial-to-Mesenchymal Transition (EMT) assay; type: cell-based; parameters: Δ Percentage Inhibition (PIN), [%]: concentration or dose not given beside the values; conditions: for IC50: Epithelial cell, 72 h, 5.0 ng/ml TGF-β1, 72 h, read-out: IC50 FN1, Log (converted); for Δ Percentage Inhibition (PIN), [%]: FN1
Experimental: Bronchial epithelial cells (BEC) from 3 IPF donors (PatA-C) were seeded for automated high-content/high-throughput microscopy. At day 2 cell culture medium was refreshed in the wells and cells grown until day 5, at which drug treatment was initiated.
Drug addition was done 1 h before stimuli addition (5.0 ng/ml TGF-β1). For trigger controls wells with BEC were treated with medium (unstimulated control) or 5.0 ng/ml TGF-β1 (stimulated control). For assay controls fibroblasts were treated with 5.0 ng/ml TGF-β1+0.1% DMSO (unstimulated control) or 5.0 ng/ml TGF-β1+1 μM SB525334 (positive control for inhibition). The reference compound and clinically approved drug nintedanib was added as concentration response curve (CRC) with 8-points in a semi-Log dilution staring from 10 μM. […] Wells were fixed with 4% paraformaldehyde and stained for Fibronectin (FN1) expression using immunofluorescence and with DAPI to assess nuclei number per well. Image acquisition and high content analysis (HCA) of FN1 and DAPI was done on a high content microscope.
as §1, §2, §3, §4

HCC827 lung cancer cells = assay: Fibrotic gene expression analysis by RNA sequencing; type: cell-based; conditions: 1 μM, 24 h vs DMSO
Experimental: (§5) 250000 HCC827 (ATCC; CRL 2868) cells/well or 200000 NCI-H1975 (ATCC; CRL 5908) cells/well were seeded in 6-well dishes (Greiner Bio-One, 7657160) the day before drug treatment in RPMI medium containing 10% FCS and 2 mM L-Glutamine. […] Subsequently cells were washed 3 times with 2 ml PBS and lysed in 300 μl lysis buffer (RA1+1% TCEP [Sigma 646547]). RNA is extracted according to Macherey-Nagel NucleoSpin 8 RNA Kit protocol for vacuum (740698.5) for RNA extraction and RNA is eluted in H2O. RNA Library preparation and sequqnening was done externally. In short, RNA sequencing libraries were generated using TruSeq RNA Sample Prep Kit v2 following manufacturer's recommendations and index codes were added to attribute sequences to each sample. Samples were sequenced using an Illumnia platform, with paired-end reads. Illumina SBS technology utilizes a proprietary reversible terminator-based method that detects single bases as they are incorporated into DNA template strands. The original data obtained from the high throughput sequencing platforms were transformed to sequenced reads by base calling. Raw data are recorded in a FASTQ file which contains sequenced reads and corresponding sequencing quality information and were further processed to obtain transcripts per million values (TPM) for variable genes.

[3] = tested on: NCI-H1975 lung cancer cells; assay: as above; type: cell-based; conditions: 1 μM, 24 h vs DMSO
Experimental: as §5

T1 sequence (Q92793 1085-1192 limits assumed): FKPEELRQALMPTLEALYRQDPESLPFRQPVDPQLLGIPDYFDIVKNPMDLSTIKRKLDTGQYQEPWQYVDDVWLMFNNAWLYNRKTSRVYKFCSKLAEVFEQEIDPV

CC(=O)N1C[C@H](c2nc(Nc3cncc(C)c3)cc(-c3cncc4[nH]ccc34)n2)CC[C@@H]1C [Compound 00075]
EC50 (CBP bromodomain): < 200 nM

CC(=O)N1C[C@H](c2nc(Nc3ccncc3)cc(-c3cccnc3)n2)CC[C@@H]1C [Compound 00077]
EC50 (CBP bromodomain): 200 to 1000 nM

CC(=O)N1C[C@H](c2nc(Nc3ccccc3)cc(-c3cncc4[nH]ccc34)n2)CC[C@@H]1C [Compound 00063]
EC50 (CBP bromodomain): < 200 nM

COC(=O)c1ccc2c(c1)NC(=O)/C2=C(\Nc1ccc(N(C)C(=O)CN2CCN(C)CC2)cc1)c1ccccc1 [Nintedanib, reference compound]
IC50 ([1]; Pat1 lung fibroblast donor): 631 nM | IC50 ([1]; Pat2 lung fibroblast donor): 398 nM | IC50 ([1]; Pat3 lung fibroblast donor): 200 nM | Potential toxicity Log [M] ([1]; Pat1): >−5.5 Log [M] | Potential toxicity Log [M] ([1]; Pat2): >−7.0 Log [M] | Potential toxicity Log [M] ([1]; Pat3): >−6.0 Log [M] | Max. Percentage Inhibition (PIN), [%] ([1]; Pat1 lung fibroblast donor): 109.3% | Max. Percentage Inhibition (PIN), [%] ([1]; Pat2 lung fibroblast donor): 101% | Max. Percentage Inhibition (PIN), [%] ([1]; Pat3 lung fibroblast donor): 98.4% | IC50 ([2]; PatA BEC donor): 10000 nM | IC50 ([2]; PatC BEC donor): 63.1 nM | Δ Percentage Inhibition (PIN), [%] ([2]; PatA BEC donor): 45.9% | Δ Percentage Inhibition (PIN), [%] ([2]; PatB BEC donor): 81.7% | Δ Percentage Inhibition (PIN), [%] ([2]; PatC BEC donor): 72.1%

CC(=O)N1C[C@H](c2nc(Nc3ccccc3)cc(-c3cncnc3)n2)CC[C@@H]1C [Compound 00062]
EC50 (CBP bromodomain): 200 to 1000 nM

CC(=O)N1C[C@H](c2nc(Nc3cc(F)c4cc[nH]c4c3)cc(-c3cccnc3)n2)CC[C@@H]1C [Compound 00040]
EC50 (CBP bromodomain): < 200 nM

COc1cncc(-c2cc(Nc3cccc(F)c3)nc([C@@H]3CC[C@H](C)N(C(C)=O)C3)n2)c1 [Compound 00004]
IC50 ([1]; Pat1 lung fibroblast donor): 1260 nM | IC50 ([1]; Pat2 lung fibroblast donor): 2510 nM | IC50 ([1]; Pat3 lung fibroblast donor): 2000 nM | inhibition of TGF-β1-mediated αSMA expression ([1]; all 3 IPF donors' lung fibroblast): full concentration-dependent inhibition | Potential toxicity Log [M] ([1]; Pat1): >−5.2 Log [M] | Potential toxicity Log [M] ([1]; Pat2): >−5.2 Log [M] | Potential toxicity Log [M] ([1]; Pat3): >−5.2 Log [M] | Max. Percentage Inhibition (PIN), [%] ([1]; Pat1 lung fibroblast donor): 90.3% | Max. Percentage Inhibition (PIN), [%] ([1]; Pat2 lung fibroblast donor): 127.1% | Max. Percentage Inhibition (PIN), [%] ([1]; Pat3 lung fibroblast donor): 105.1% | inhibition of TGF-β1-mediated FN1 expression ([2]; BEC from 2 IPF donors): full concentration-dependent inhibition | inhibition of TGF-β1-mediated FN1 expression ([2]; BEC from one IPF donor, partial = ΔPIN <75): partial | modulation of the number of nuclei ([2]; BEC, indicative of absence of potential cytotoxic side-effects): No modulation | IC50 ([2]; PatA BEC donor): 5010 nM | IC50 ([2]; PatB BEC donor): 1000 nM | IC50 ([2]; PatC BEC donor): 2000 nM | Δ Percentage Inhibition (PIN), [%] ([2]; PatA BEC donor): 62.5% | Δ Percentage Inhibition (PIN), [%] ([2]; PatB BEC donor): 84.9% | Δ Percentage Inhibition (PIN), [%] ([2]; PatC BEC donor): 116.3% | expression of genes up-regulated during fibrotic disease (MMP, FN1, COL1A1), mRNA abundance (TPM) (HCC827 lung cancer cells): reduces expression of genes | expression of genes up-regulated during fibrotic disease (MMP, FN1, COL1A1), mRNA abundance (TPM) [3]: reduces expression of genes
